Article PMC10254233, “Synthesis and In Vitro Biological Evaluation of p-Carborane-Based Di-tert-butylphenol Analogs” (Molecules, 2023)

Tests used:
ovine COX-1 = biological target: T1, ovine COX-1 (Ovis aries, UniProt P05979); assay: COX Fluorescent Inhibitor Screening Assay, COX-1; format: biochemical; details: in duplicate
T1 construct: purchased Cayman Chemical Company
T1 sequence (P05979 25-600): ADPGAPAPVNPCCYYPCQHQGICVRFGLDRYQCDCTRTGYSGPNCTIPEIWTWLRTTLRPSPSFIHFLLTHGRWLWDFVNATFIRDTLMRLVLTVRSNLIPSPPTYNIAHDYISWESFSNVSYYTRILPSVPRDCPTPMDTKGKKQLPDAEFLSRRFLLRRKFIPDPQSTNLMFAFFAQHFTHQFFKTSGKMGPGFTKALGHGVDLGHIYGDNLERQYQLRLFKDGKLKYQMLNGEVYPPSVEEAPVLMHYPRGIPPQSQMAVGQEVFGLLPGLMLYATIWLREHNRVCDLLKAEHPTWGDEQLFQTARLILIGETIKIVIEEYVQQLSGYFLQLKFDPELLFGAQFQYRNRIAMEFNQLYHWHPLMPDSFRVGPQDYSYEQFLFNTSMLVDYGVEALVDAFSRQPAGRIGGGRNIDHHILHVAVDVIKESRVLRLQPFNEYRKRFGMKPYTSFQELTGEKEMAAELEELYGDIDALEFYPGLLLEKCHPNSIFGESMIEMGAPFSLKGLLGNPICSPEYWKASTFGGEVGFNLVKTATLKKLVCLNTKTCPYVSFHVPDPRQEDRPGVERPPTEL
Protocol: COX inhibition activity against ovine COX-1 and human COX-2 was determined using the fluorescence-based COX assay COX Fluorescent Inhibitor Screening Assay Kit (Cayman Chemical Company, Ann Arbor, MI, USA) according to the manufacturer’s instructions as previously reported by us. All compounds were screened at a concentration of 100 µM in duplicate.

A375 melanoma = assay: Cell viability, MTT assay, A375; format: cell-based, human; details: 72 h, mean ± SD
Protocol: (§1) Five human cell lines (A375 melanoma, A549 lung adenocarcinoma, HCT116 and HT29 colorectal carcinoma, MDA-MB-231 triple-negative breast adenocarcinoma) were used to study the antitumor effects of the di-tert-butylphenols and their respective carborane analogs. All selected cell lines were derived from inflammation-associated tumors.
(§2) After the incubation period, the supernatant was discarded from the wells, and the cells were washed two times with 200 µL of PBS. Next, MTT solution at a final concentration of 0.5 mg/mL was added and incubated at 37 °C until purple formazan crystals were formed (30 min to one hour). After incubation, the dye was discarded. In order to dissolve the formed formazan crystals DMSO was added, and the absorbance was measured at λmax = 540 nm, with the reference/background wavelength of 670 nm. All results are expressed as a percentage of the control value which was arbitrary set to 100%. After 72 h treatment, cells were washed with 200 µL of PBS and fixed with 4% paraformaldehyde (PFA) for 15 min at room temperature (RT). Next, cells were stained with 1% CV solution. After 20 min, cells were washed in tap water and dried on air. Dye was dissolved in 33% acetic acid and the absorbance was measured at λmax = 540 nm, with the reference/background wavelength of 670 nm. Results were expressed as a percentage of the control value which was arbitrary set to 100%.
(§3) 1. General methods, materials, and procedures
(§4) 1.1.1. Reagents and cells
(§5) Reagents and cells were obtained from following manufacturers: Capricorn Scientific GmbH (Hessen, Germany) – Culture medium RPMI-1640, Dulbecco's Modified Eagle Medium (DMEM), and fetal bovine serum (FBS). Serva (Heidelberg, Germany) – Paraformaldehyde (PFA). Sigma (St. Louis, MO, USA) – Ethylenediaminetetraacetic acid (EDTA), Dimethyl sulfoxide (DMSO), chloroquine, CV, Triton X-100, RNase, PI, PBS, 3-MA, CFSE, and fluorescent mounting medium. AppliChem (MO, USA) –MTT. Thermo Fisher Scientific (Waltham, MA, USA) – DHR. R&D Systems (Minneapolis, MN, USA) – ApoStat. BD (Pharmingen, San Diego, SAD) – Annexin V-FITC (AnnV). Biological Industries (Cromwell, CT, USA) – Penicillin Streptomycin solution. American Type Culture Collection (ATCC, Manassas, Virginia, USA) – Human lung carcinoma (A549), human breast adenocarcinoma (MDA-MB-231), human colorectal ade-nocarcinoma (HT-29), human colorectal carcinoma (HCT116) and human melanoma (A375).
(§6) Cell lines (A375, HCT116, HT-29 and MDA-MB-231) were cultivated in HEPES-buffered RPMI-1640 medium while A549 cell line was cultivated in Dulbecco's Modified Eagle Medium (DMEM) which were previously supplemented with 10% heat-inactivated FBS, penicillin (100 units/mL), and streptomycin (100 μg/mL). All cells were kept at 37 °C in a humidified atmosphere with 5% CO2. For viability determi-nation cells were seeded at following densities in 96-well plates: 4 x 10^3 cells/well (A375, HT-29 and MDA-MB-231), 5 x 10^3 cells/well (HCT116), and 3 x 10^3 cells/well (A549). […]
(§7) Afterwards, cells were washed with phosphate-buffered saline (PBS) and stained with AnnV (15 μg/mL) and PI (15 μg/mL). […]
(§8) PBS and analyzed using flow cytometry. HCT116 cells were stained with 1 µg/mL of AO solution for 15 min at 37 °C to detect the presence of autophagic cell death. Afterwards cells were washed with PBS, resuspended and analyzed by flow cytometry (CyFlow® Space Partec using the PartecFloMax® software

A549 lung adenocarcinoma = assay: Cell viability, MTT assay, A549; format: cell-based, human; details: 72 h, mean ± SD
Protocol: as §1, §2, §3, §4, §5, §6
(§9) Afterwards, cells were washed with phosphate-buffered saline (PBS) and stained with AnnV (15 μg/mL) and PI (15 μg/mL). After 15 min incubation at room temperature (RT) protected from light the cells were resuspended in AnnV-binding buffer and analysed using flow cytom-etry. HCT116 cells were incubated with pan-caspase inhibitor Apostat for 30 min at 37 °C to determine whether detected apoptosis was mediated by caspase activation. Afterwards, cells were washed with PBS and analyzed using flow cytometry. HCT116 cells were stained with 1 µg/mL of AO solution for 15 min at 37 °C to detect the presence of autophagic cell death. Afterwards cells were washed with PBS, resuspended and analyzed by flow cytometry (CyFlow® Space Partec using the PartecFloMax® software

[1] = tested on: HCT116 colorectal carcinoma; assay: Cell viability, MTT assay, HCT116; format: cell-based, human; details: 72 h, mean ± SD
Protocol: as §1, §2, §3, §4, §5, §6, §7, §8

[2] = tested on: HT-29 colorectal carcinoma; assay: Cell viability, MTT assay, HT-29; format: cell-based, human; details: 72 h, mean ± SD
Protocol: as §1, §2, §3, §4, §5, §6, §9

[3] = tested on: MDA-MB-231 triple-negative breast adenocarcinoma; assay: Cell viability, MTT assay, MDA-MB-231; format: cell-based, human; details: 72 h, mean ± SD
Protocol: as §1, §2, §3, §4, §5, §6, §9

[4] = NMR spectroscopic stability study in aqueous DMSO-d6; format: physicochemical; details: room temperature, in air, four weeks, 1H and 11B{1H} NMR
Excerpt: Solubility and chemical stability in organic solvents, such as aqueous dimethyl sulfoxide (DMSO), are crucial for biological investigations. Therefore, the stability of the p-carborane-containing compounds R-830-Cb, S-2474-Cb, KME-4-Cb, and E-5110-Cb in aqueous DMSO-d6 at room temperature in air was studied by ^1H- and ^11B{^1H}-NMR spectroscopy over four weeks and confirmed that all compounds are stable (see Supplementary Materials, Figure S24).

| IC50 (A375 melanoma) [µM] | IC50 (A549 lung adenocarcinoma) [µM] | IC50 [1] [µM] | IC50 [2] [µM] | IC50 [3] [µM] | stability in aqueous DMSO-d6 [4] | Substance | % Inhibition at 100 µM COX-1 (ovine COX-1) |
| --- | --- | --- | --- | --- | --- | --- | --- |
| 106 ± 6.3 | 122 ± 10.4 | 108 ± 11.5 | 81.8 ± 6.1 | > 200 | stable | (3E)-1-Hydroxy-12-(methylene-[2′-ethylisothiazolidine-1′,1′-dioxide])-1,12-dicarba-closo-dodecaborane(12) [Compound S-2474-Cb] | n.i. (n.i. = no inhibition (%inhibition below 5%)) |
| 69.3 ± 1.7 | 177 ± 14.5 | 144 ± 10.5 | 120 ± 9.7 | – | stable | (3E)-1-Hydroxy-12-(methylene-[1′-methoxypyrrolidine-2′-one])-1,12-dicarba-closo-dodecaborane(12) [Compound E-5110-Cb] | n.i. (n.i. = no inhibition (%inhibition below 5%)) |
| 83.3 ± 2.3 | 120 ± 7 | 88.5 ± 4.3 | 139 ± 5.4 | 120 ± 3.9 | stable | (3E)-1-Hydroxy-12-(methylene-[dihydrofurane-2′(3H)-one])-1,12-dicarba-closo-dodecaborane(12) [KME-4-Cb] | 26% |

| Substance | IC50 (A375 melanoma) [µM] | IC50 (A549 lung adenocarcinoma) [µM] | IC50 [1] [µM] | IC50 [2] [µM] | IC50 [3] [µM] | stability in aqueous DMSO-d6 [4] | % Inhibition at 100 µM COX-1 (ovine COX-1) |
| --- | --- | --- | --- | --- | --- | --- | --- |
| 1-Hydroxy-12-(thiophen-2′-carbonyl)-1,12-dicarba-closo-dodecaborane(12) [Compound R-830-Cb] | 35.9 ± 0.8 | 66.5 ± 1.7 | 40.9 ± 3.1 | 65.6 ± 5.3 | 46.5 ± 0.1 | stable | 18% |
